Assay results published in PMC6433232, “Targeting mitochondria in cancer therapy could provide a basis for the selective anti-cancer activity” (PLoS ONE, 2019).
Where “and” joins values, the source holds several entries; their conditions need not be identical. Equal entries are not always repeated. Where two headings read alike, the source gives them in different places.

System: primary acute myeloid leukemia (AML) cells obtained from patients
Assay: Kinase inhibitor library screening with and without NSC130362, primary AML cells
Assay type: cell-based, Human
[1] = ratio of EC50 for inhibitor to EC50 for inhibitor/NSC130362 combination, NSC130362 10 μM, Screen N 1
[2] = ratio of EC50 for inhibitor to EC50 for inhibitor/NSC130362 combination, NSC130362 10 μM, Screen N 2
[3] = ratio of EC50 for inhibitor to EC50 for inhibitor/NSC130362 combination, NSC130362 10 μM, Screen N 3

Row | SMILES | EC50 decrease, fold (Screen N 1) [1] [fold] | EC50 decrease, fold (Screen N 2) [2] [fold] | EC50 decrease, fold (Screen N 3) [3] | EC50 decrease, fold (Screen N 1) | EC50 decrease, fold (Screen N 2) [fold] | EC50 decrease, fold (Screen N 3) [fold]
1 | Cc1[nH]nc2ccc(-c3cncc(OC[C@@H](N)Cc4ccccc4)c3)cc12 [A-674563] | 3.1 | 1.2 | 6.2 fold | – | – | –
2 | COc1cc2nccc(Oc3ccc(NC(=O)Nc4cc(C)on4)c(Cl)c3)c2cc1OC [Tivozanib (AV-951)] | 15.6 | 1.0 | 89.9 fold | – | – | –
3 | COc1ccc(COc2ccc(Cc3cnc(N)nc3N)cc2OC)cc1 [GW-2580] | – | 1.0 | – | – | – | –
4 | O=C(c1ccc(F)c(F)c1Nc1ccc(I)cc1F)N1CC(O)([C@@H]2CCCCN2)C1 [Combimetinib (GDC-0973)] | – | 0.6 | – | – | – | –
5 | CC[C@H](C)C(=O)O[C@H]1C[C@@H](C)C=C2C=C[C@H](C)[C@H](CC[C@@H]3C[C@@H](O)CC(=O)O3)[C@H]21 [Lovastatin] | – | – | 1.0 fold | – | – | –
6 | CSc1cccc(Nc2ncc3cc(-c4c(Cl)cccc4Cl)c(=O)n(C)c3n2)c1 [PD173955] | 0.9 | 1.0 | 5.1 fold | – | – | –
7 | CS(=O)(=O)c1ccc(C(=O)Nc2ccc(Cl)c(-c3ccccn3)c2)c(Cl)c1 [Vismodegib (GDC-0449)] | 1.0 | 1.0 | 1.0 fold | – | – | –
8 | O=C(NOCC1CC1)c1ccc(F)c(F)c1Nc1ccc(I)cc1Cl [CI-1040 (PD184352)] | 0.9 | 1.0 | 0.0667 fold | – | – | –
9 | C#Cc1cccc(Nc2ncnc3cc(OCCOC)c(OCCOC)cc23)c1 [Erlotinib] | – | 1.0 | – | – | – | –
10 | Cc1ccc(Nc2nccc(N(C)c3ccc4c(C)n(C)nc4c3)n2)cc1S(N)(=O)=O [Pazopanib (GW786034)] | 1.0 | 1.0 | 193.3 fold and 170.6 fold | – | – | –
11 | CS(=O)(=O)CCNCc1ccc(-c2ccc3ncnc(Nc4ccc(OCc5cccc(F)c5)c(Cl)c4)c3c2)o1 [Lapatinib] | – | 1.0 | – | – | – | –
12 | CCc1nc(C(N)=O)c(Nc2ccc(N3CCC(N4CCN(C)CC4)CC3)c(OC)c2)nc1NC1CCOCC1 [Gilteritinib (ASP-2215)] | 0.2 | – | 1.3 fold | – | – | –
13 | C=CC(=O)Nc1cc2c(Nc3ccc(F)c(Cl)c3)ncnc2cc1OCCCN1CCOCC1 [Canertinib (CI-1033)] | 2.8 | 0.7 | 424.3 fold | – | – | –
14 | CC[C@H](Nc1ncnc2[nH]cnc12)c1nc2cccc(F)c2c(=O)n1-c1ccccc1 [GS-1101 (CAL-101)] | 506.3 | 1.0 | 356.4 fold | – | – | –
15 | CC(C)(C)c1cnc(CSc2cnc(NC(=O)C3CCNCC3)s2)o1 [SNS-032 (BMS-387032)] | 6.0 | 0.9 | 14.0 fold | – | – | –
16 | Cc1nc(Nc2ncc(C(=O)Nc3c(C)cccc3Cl)s2)cc(N2CCN(CCO)CC2)n1 [Dasatinib] | – | 1.0 | – | – | – | –
17 | COc1cc2nccc(Oc3ccc(NC(=O)C4(C(=O)Nc5ccc(F)cc5)CC4)cc3)c2cc1OC [Cabozantinib (XL-184)] | 3.2 | 1.0 | 0.259 fold | – | – | –

Row | SMILES | EC50 decrease, fold (Screen N 1) [1] [fold] | EC50 decrease, fold (Screen N 2) [2] [fold] | EC50 decrease, fold (Screen N 3) [3] | EC50 decrease, fold (Screen N 1) | EC50 decrease, fold (Screen N 2) [fold] | EC50 decrease, fold (Screen N 3) [fold]
18 | CC1(C)CNc2cc(NC(=O)c3cccnc3NCc3ccncc3)ccc21 [Motesanib (AMG-706)] | 1.0 | 1.0 | 1.0 fold | – | – | –
19 | COc1cc(Nc2c(C#N)cnc3cc(OCCCN4CCN(C)CC4)c(OC)cc23)c(Cl)cc1Cl [Bosutinib (SKI-606)] | 15.8 | 1.0 | 29.6 fold | – | – | –
20 | COc1cc(Nc2ncc3c(n2)-c2ccc(Cl)cc2C(c2c(F)cccc2OC)=NC3)ccc1C(=O)O [Alisertib (MLN8237)] | 1.0 | 1.0 | 0.3 fold | – | – | –
21 | Cc1ccc(NC(=O)c2ccc(CN3CCN(C)CC3)cc2)cc1Nc1nc(-c2cccnc2)cs1 [Masitinib (AB-1010)] | – | – | – | 0.174 fold | 1.0 | 3.7
22 | CN(C)C[C@@H]1CCn2cc(c3ccccc32)C2=C(C(=O)NC2=O)c2cn(c3ccccc23)CCO1 [LY-333531] | 3.3 | 1.0 | 1.1 fold | – | – | –
23 | Cc1ccc(-n2nc(C(C)(C)C)cc2NC(=O)Nc2ccc(OCCN3CCOCC3)c3ccccc23)cc1 [Doramapimod (BIRB 796)] | 0.15 | 1.0 | 511.2 fold | – | – | –
24 | Cc1cn(-c2cc(NC(=O)c3ccc(C)c(Nc4nccc(-c5cccnc5)n4)c3)cc(C(F)(F)F)c2)cn1 [Nilotinib] | – | 1.0 | 1.0 fold | – | – | –
25 | CCCCNc1ncc2c(-c3ccc(CN4CCN(C)CC4)cc3)cn(C3CCC(O)CC3)c2n1 (stereo not drawn) [UNC 2025A] | – | 1.0 | – | – | – | –
26 | C[C@@H](Oc1cc(-c2cnn(C3CCNCC3)c2)cnc1N)c1c(Cl)ccc(F)c1Cl [Crizotinib (PF-2341066)] | – | – | – | 11.4 fold and 6.3 fold | 1.0 | –
27 | COc1cc2/c(=N/c3ccc(Br)cc3F)nc[nH]c2cc1OCC1CCN(C)CC1 [Vandetanib (ZD6474)] | 0.5 | 1.0 | – | – | – | –
28 | CCN(CC)CCNC(=O)c1c(C)[nH]c(/C=C2\C(=O)Nc3ccc(F)cc32)c1C [Sunitinib] | – | 1.0 | – | – | – | –
29 | COc1cc(C(=O)O)ccc1NC(=O)[C@@H]1N[C@@H](CC(C)(C)C)[C@](C#N)(c2ccc(Cl)cc2F)[C@H]1c1cccc(Cl)c1F [Idesanutlin] | – | 1.0 | – | – | – | –
30 | CC(C)(C)c1cc(NC(=O)Nc2ccc(-c3cn4c(n3)sc3cc(OCCN5CCOCC5)ccc34)cc2)no1 [Quizartinib (AC220)] | – | 1.0 | – | – | – | –
31 | CO[C@H]1C[C@@H]2CC[C@@H](C)[C@@](O)(O2)C(=O)C(=O)N2CCCC[C@H]2C(=O)O[C@H]([C@H](C)C[C@@H]2CC[C@@H](O)[C@H](OC)C2)CC(=O)[C@H](C)/C=C(\C)[C@@H](O)[C@@H](OC)C(=O)[C@H](C)C[C@H](C)/C=C/C=C/C=C/1C [Rapamycin] | – | 1.0 | – | – | – | –
32 | Cc1ccc(F)c(NC(=O)Nc2ccc(-c3cccc4[nH]nc(N)c34)cc2)c1 [Linifanib (ABT-869)] | 261.0 | 1.4 | 1.0 fold | – | – | –
33 | Cc1[nH]c2ccccc2c1CCNCc1ccc(/C=C/C(=O)NO)cc1 [Panobinostat] | 9.3 | 1.2 | 0.0014 fold | – | – | –

Second part, led by results:

Row | EC50 decrease, fold (Screen N 1) [1] [fold] | EC50 decrease, fold (Screen N 2) [2] [fold] | EC50 decrease, fold (Screen N 3) [3] | SMILES | EC50 decrease, fold (Screen N 1) | EC50 decrease, fold (Screen N 2) [fold] | EC50 decrease, fold (Screen N 3) [fold]
34 | – | 1.0 | – | Cc1cc(-c2ncc(CC(=O)Nc3ccc(-c4cnccn4)cn3)cc2C)ccn1 [LGK974] | – | – | –
35 | – | 1.0 | – | N[C@@H]1CCCN(c2c(Br)cnc3[nH]cc(NC(=O)C4CC4)c23)C1 [GDC-0575] | – | – | –
36 | – | 1.0 | – | Cn1nccc1Nc1nccc(-c2ccn([C@H](CO)c3ccc(Cl)c(F)c3)c(=O)c2)n1 [GDC-0994] | – | – | –
37 | 1.3 | 1.0 | 0.001 fold | O=C(O)c1ccc(Nc2ncc3c(n2)-c2ccc(Cl)cc2C(c2c(F)cccc2F)=NC3)cc1 [MLN8054] | – | – | –
38 | 1.1 | 1.0 | 0.226 fold | Cc1[nH]c(/C=C2\C(=O)Nc3ccc(S(=O)(=O)Cc4c(Cl)cccc4Cl)cc32)c(C)c1C(=O)N1CCC[C@@H]1CN1CCCC1 [PHA-665752] | – | – | –
39 | 6.0 | 1.0 | 97.6 fold | COCCNCc1ccc(-c2cc3nccc(Oc4ccc(NC(=S)NC(=O)Cc5ccc(F)cc5)cc4F)c3s2)nc1 [MGCD-265] | – | – | –
40 | 0.165 | 1.0 | 1.1 fold | CCn1c(-c2nonc2N)nc2c(C#CC(C)(C)O)ncc(OC[C@H]3CCCNC3)c21 [GSK690693] | – | – | –
41 | – | 1.0 | – | Cc1[nH]c2ccc(F)cc2c1-c1nc2c3cccnc3c3ncccc3c2[nH]1 [APTO-253] | – | – | –
42 | 0.9 | 1.0 | 952.6 fold | OCCn1cc(-c2ccc3c(c2)CC/C3=N\O)c(-c2ccncc2)n1 [GDC-0879] | – | – | –
43 | 1.0 | 1.0 | 0.16 fold | Cc1ccccc1C(C(=O)NC1CCCCC1)N(C(=O)Cn1ccnc1C)c1cccc(F)c1 (stereo not drawn) [AGI-5198] | – | – | –
44 | – | – | 82.4 fold | CCCCCNC(=O)N1CCC(CN(Cc2ccc(Cl)cc2)Cc2ccc([N+](=O)[O-])s2)C1 (stereo not drawn) [SR9011] | – | – | –
45 | 11.9 | 1.0 | 0.000745 fold | Cc1[nH]c(/C=C2\C(=O)Nc3ccc(S(=O)(=O)N(C)c4cccc(Cl)c4)cc32)c(C)c1C(=O)N1CCN(C)CC1 [SU11274] | – | – | –
46 | 497.3 | 1.0 | 0.365 fold | Cc1cc(Nc2nc(N[C@@H](C)c3ncc(F)cn3)ncc2Cl)n[nH]1 [AZD1480] | – | – | –
47 | 1.4 | 1.0 | 0.000816 fold | O=C(O)c1ccc2c3c1cccc3c(=O)n1c3ccccc3nc21 [STO609] | – | – | –
